{
  "source": "patent US11103891B2",
  "about": "“Pharmaceutical composition” (priority 2011, dated 2021)",
  "origin": "cited, not measured here",
  "details": "immediate release preparations of levodopa",
  "data": [
    {"smiles": "N[C@@H](Cc1ccc(O)c(O)c1)C(=O)O", "note": "[levodopa]", "values": [
      {"measurement": "levodopa dose that reaches the brain", "value": "about 5%"}
    ]}
  ]
}
